# Laboratory results: ChEMBL document CHEMBL5584352, “Targeted Discovery of a Natural ortho-Quinone Methide Precursor and Green Generation of Its Oligomers” (J Nat Prod, 2024)
# Calls of active or inactive are those of the source. The calls are words filed in the database; no cut-off is given here.
# Tests used:
# Escherichia coli = assay: Antibacterial activity against Escherichia coli ATCC 0111 assessed as reduction in bacterial growth incubated for 24 hrs by two fold serial dilution method; format: functional, organism-based
# Staphylococcus aureus = assay: Antibacterial activity against Staphylococcus aureus 209P assessed as reduction in bacterial growth incubated for 24 hrs by two fold serial dilution method; format: functional
# HeLa = assay: Cytotoxicity against human HeLa cells assessed as reduction in cell viability incubated for 24 hrs by MTT assay; format: functional, cell-based
MIC (Staphylococcus aureus) [µg/mL],SMILES,Activity (Escherichia coli),IC50 (HeLa) [µM],Activity (Staphylococcus aureus),Activity (HeLa)
32,CC(=O)[C@@H](C)c1cc(O)c(Cc2c3cc(O)cc(O)c3c(O)c3c(=O)cc(C)oc23)c(O)c1C=O,inactive,12.4,–,–
–,Cc1c(C)c(C(=O)O)c(O)c(C)c1O,inactive,–,inactive,inactive
–,CC(=O)[C@@H](C)c1cc(O)c(Cc2c(C)cc(O)cc2O)c(O)c1C=O,inactive,–,inactive,inactive
–,CC(=O)[C@@H](C)c1cc(O)c(C)c(O)c1C=O,inactive,–,inactive,inactive
–,Cc1cc(=O)c2c(O)c3c(O)cc(O)cc3cc2o1,inactive,–,inactive,inactive
–,CC(=O)[C@@H](C)c1cc(O)c(CO)c(O)c1C=O,inactive,–,inactive,inactive
–,CC(=O)[C@@H](C)c1cc(O)c(Cc2c(O)cc(O)c3c(O)c4c(=O)cc(C)oc4cc23)c(O)c1C=O,inactive,–,inactive,inactive
–,CC(=O)[C@@H](C)c1cc(O)c(Cc2c(C)c(C)c(O)c(C)c2O)c(O)c1C=O,inactive,–,inactive,inactive
–,CC(=O)[C@@H](C)c1cc(O)c(Cc2c(O)cc(O)c(Cc3c(O)cc([C@H](C)C(C)=O)c(C=O)c3O)c2C)c(O)c1C=O,inactive,–,inactive,inactive
–,Cc1cc(O)c(C)c(O)c1C,inactive,–,inactive,inactive
